According to patent US20140037659A1 (Yissum Research Development Company of the Hebrew …, priority 2011, published 2014):

What was measured:
[1] = system: MDSCs; assay: 5FU treatment of BCG-treated mice displaying chronic inflammation; format: in vivo
Description: Normal C57B116 mice repeatedly exposed to heat-killed BCG were used as the mouse model for chronic inflammation^1. BCG was administered by three subcutaneous injections at 1 wk intervals, 100 μg per animal/dose; the first two doses were administrated with IFA (Incomplete Freund's adjuvant), and subsequent injections included heat-killed BCG in PBS. Unless stated otherwise, splenocytes were collected 2-3 days after the last injection. Control mice remained untreated. For experiments with chicken OVA (Sigma) as antigen, the same protocol was maintained: For a Th1 response BCG was administered as above but with OVA. For a Th2 response, the first and second injections were with 100 μg OVA adsorbed to Al(OH)3 (alum; Thermo), and the third injection was with 100 μg OVA in PBS. Experimental groups included at least three mice, and each experiment was repeated at least three times.
BCG-treated mice received three i.p. injections of 5-fluorouracil (5FU); The first 5FU injection (1 mg/mouse) was given at the day of the second BCG treatment and the second 5FU injection was given four days later. The third 5FU injection (0.5 mg/mouse) was given at the day of the third BCG treatment.
All the antibodies were purchased from Biolegend.

[2] = system: MDSCs; conditions: recently demonstrated, reference 30; cited from earlier work
[3] = target: T1, SNX9 (sorting nexin 9 protein), endogenous in EL4 T cell line (Mus musculus, UniProt Q91VH2 1-595); assay: immunoprecipitation of EL4 lysate with anti-CD3δ, immunoblot for SNX9
T1 construct: Endogenous protein in a Triton X-100 lysate of EL4 T cells; also called sorting nexin-9 [Mus musculus]

[4] = splenic cells of BCG+5FU treated mice vs BCG treated mice, immunoblotting, FIG. 14A

T1 sequence (Q91VH2 whole entry): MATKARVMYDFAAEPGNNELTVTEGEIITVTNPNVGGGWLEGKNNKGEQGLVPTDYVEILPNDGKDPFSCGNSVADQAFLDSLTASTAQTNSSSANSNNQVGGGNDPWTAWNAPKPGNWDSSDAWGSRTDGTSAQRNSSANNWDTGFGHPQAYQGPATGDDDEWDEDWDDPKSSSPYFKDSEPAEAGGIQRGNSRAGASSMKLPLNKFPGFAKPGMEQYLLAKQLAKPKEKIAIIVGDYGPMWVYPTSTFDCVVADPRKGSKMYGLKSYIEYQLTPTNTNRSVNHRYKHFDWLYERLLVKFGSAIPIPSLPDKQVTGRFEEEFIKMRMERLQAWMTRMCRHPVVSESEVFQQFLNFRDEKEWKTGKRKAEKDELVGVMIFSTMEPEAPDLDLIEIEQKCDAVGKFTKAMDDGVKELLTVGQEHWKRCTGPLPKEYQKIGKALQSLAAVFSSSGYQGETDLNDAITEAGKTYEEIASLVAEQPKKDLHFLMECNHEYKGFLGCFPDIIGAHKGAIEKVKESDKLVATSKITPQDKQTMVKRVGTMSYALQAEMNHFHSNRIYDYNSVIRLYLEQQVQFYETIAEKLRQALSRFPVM

Molecule | MDSCs levels (Gr1+Mac1+ double-positive cells) ([1]; FACS of cells from BCG+5FU treated mice, FIG. 14B, C) | SNX9 expression levels [1, 4] | ζ chain expression levels [1, 4] | effect on MDSCs [2] | binding result [3]
O=c1[nH]cc(F)c(=O)[nH]1 [5FU, 5-fluorouracil] | Eliminates MDSCs | recovery | recovery | cytotoxic effect on MDSCs | 
CD3δ of EL4 T cell line (receptor, UniProt P04235 22-173, looked up, Immunoprecipitated from EL4 lysate with anti-CD3δ antibody) FKIQVTEYEDKVFVTCNTSVMHLDGTVEGWFAKNKTLNLGKGVLDPRGIYLCNGTEQLAKVVSSVQVHYRMCQNCVELDSGTMAGVIFIDLIATLLLALGVYCFAGHETGRPSGAAEVQALLKNEQLYQPLRDREDTQYSRLGGNWPRNKKS |  |  |  |  | no binding
